From article PMC8224697 (Marine Drugs, 2021)
Values after ≈ are worked out from the molar mass of the structure shown. “Also recorded” adds a separate entry of the source. Read-outs that look alike come from different tables or passages of the source.

Columns and labels:
[1] = target: T1, recombinant ICL cloned from C. albicans ATCC10231 (Candida albicans, UniProt Q9P8Q7); experiment: ICL inhibition assay (glyoxylate phenylhydrazone formation, A324 nm); format: biochemical; details: for IC50: purified recombinant ICL, n = 3
T1 construct: made in house
Method: The preparation of recombinant ICL cloned from C. albicans ATCC10231 was performed as described previously. The inhibitory activities of secoemestrin C (1), dethiosecoemestrin (2), emestrin (3), and emestrin B (4) against purified recombinant ICL were evaluated according to a previously documented procedure. The production of ICL-catalyzed glyoxylate phenylhydrazone from phenylhydrazine and isocitrate was measured using a spectrophotometer at an absorbance wavelength of 324 nm.
The preparation of the recombinant ICL protein from C. albicans ATCC10231 was performed as described in a previous paper. We used the two synthetic primers IC-1 (5′-[…]-3′) and IC-2 (5′-[…] […]-3′) to perform a PCR amplification of ICL. The ICL inhibitory activity of the test compounds were evaluated according to a previously described method. The ICL-catalyzed formation of glyoxylate phenylhydrazone from isocitrate and phenylhydrazine substrates was measured using a spectrophotometer at an absorbance wavelength of 324 nm. The inhibitory activity of the test compound was calculated relative to that of the DMSO control (n = 3). We used 3-nitropropionate as a positive control.

C. albicans ATCC10231 = experiment: microbe, parasite or virus in culture; format: cell-based, Candida albicans
Description: (§1) The ICL gene was cloned from C. albicans strain ATCC10231 genomic DNA. C. albicans SC5314 (ATCC MYA-2876) (wild type), MRC10 (Δicl) (ICL-deletion mutant), MRC11 (Δicl + ICL) (ICL-complemented mutant), […], ATCC18804, and ATCC11006 were used for the growth assay. The ICL-deletion mutant strains MRC10 and MRC11 were kindly provided by Prof. Michael C. Lorenz (The University of Texas Health Science Center at Houston). Each strain was subcultured in YNB broth (Difco Laboratories, Detroit, MI, USA) supplemented with 2% glucose at 28 °C. For the ICL inhibitor addition, isolated compounds dissolved in DMSO were added to a final solvent concentration of 0.5% in all growth assays.
(§2) The antifungal activity of secoemestrin C (1), dethiosecoemestrin (2), emestrin (3), and emestrin B (4) was evaluated against C. albicans strains (SC5314, ATCC10231, ATCC10259, ATCC11006, and ATCC18804) using a previously documented procedure. The growth of C. albicans was monitored in YNB broth with glucose or potassium acetate as the carbon source. The plates were incubated at 28 °C for 3 days. […] Amphotericin B, an antifungal agent, was applied as a positive control.

C. albicans ATCC10259 = experiment: In vitro growth assay (MIC) in YNB broth; format: cell-based; details: Candida albicans, ATCC10259, 72 h, 28 °C
Description: (§3) Following phagocytosis by macrophages, C. albicans undergoes a metabolic shift from glycolysis to the glyoxylate cycle, enabling cells to utilize C2 carbon sources. Therefore, we hypothesized that the ICL inhibitor reduces nutrient uptake capacity and impedes the survival of C. albicans within macrophages.
as §1, §2

C. albicans ATCC11006 = experiment: In vitro growth assay (MIC) in YNB broth; format: cell-based; details: Candida albicans, ATCC11006, 72 h, 28 °C
Description: as §3, §1, §2

C. albicans ATCC18804 = experiment: In vitro growth assay (MIC) in YNB broth; format: cell-based; details: Candida albicans, ATCC18804, 72 h, 28 °C
Description: as §3, §1, §2

C. albicans SC5314 = experiment: In vitro growth assay (MIC) in YNB broth; format: cell-based, Candida albicans; details: 28 °C
Description: as §3, §1, §2

[2] = tested on: C. albicans strains (SC5314, ATCC10231, ATCC10259, ATCC11006, and ATCC18804); experiment: In vitro growth assay (MIC), summary over the strain panel; format: cell-based; details: Candida albicans; C. albicans growing on acetate, over five strains
Method: as §3, §2

[3] = tested on: C. albicans strains SC5314 (wild type), MRC10 (Δicl), and MRC11 (Δicl + ICL); experiment: Growth phenotype analysis on YNB agar plates; format: cell-based, Candida albicans; details: 2 days, 28 °C
Method: To determine the effects of secoemestrin C (1) on C. albicans growth under C2–assimilating conditions, phenotypic analyses of ICL-deletion mutants were also performed using C. albicans strains SC5314 (wild type), MRC10 (Δicl), and MRC11 (Δicl + ICL). After pre-culture, each strain was streaked onto YNB agar plates supplemented with glucose or potassium acetate with or without 64 μg/mL secoemestrin C (1).
Figure 3 Inhibitory activity of secoemestrin C (1) toward the growth and ICL mRNA expression of C. albicans. (a) C. albicans strains SC5314 (wild-type), MRC10 (Δicl), and MRC11 (Δicl + ICL) were cultured on YNB agar plates containing 2% glucose or 2% potassium acetate as a carbon source with or without 64 μg/mL secoemestrin C (1) for 2 days at 28 °C. […] ICL mRNA expression was analyzed by RT-PCR. Glyceraldehyde-3-phosphate dehydrogenase (GPDH), a housekeeping gene, was measured as a loading control.
(§4) Growth phenotype and ICL expression analysis were performed using C. albicans strains SC5314 (wild type), MRC10 (Δicl), and MRC11 (Δicl + ICL) according to a previously described method. […] Semi-quantitative RT-PCR was conducted using ICL-specific primers: 5′-[…]-3′ (forward) and 5′-TAGATTCAGCTTCA GCCATCAAAGC-3′ (reverse). The expression of the housekeeping gene glyceraldehyde-3-phosphate dehydrogenase (GPDH) was measured as a loading control.

[4] = tested on: ICL mRNA expression in C. albicans; experiment: ICL mRNA expression by semi-quantitative RT-PCR; format: cell-based, Candida albicans; details: cells grown in 2% acetate with 16, 32, or 64 μg/mL compound; 4 h, 28 °C; SC5314 and MRC11
Method: Figure 3 Inhibitory activity of secoemestrin C (1) toward the growth and ICL mRNA expression of C. albicans. (a) C. albicans strains SC5314 (wild-type), MRC10 (Δicl), and MRC11 (Δicl + ICL) were cultured on YNB agar plates containing 2% glucose or 2% potassium acetate as a carbon source with or without 64 μg/mL secoemestrin C (1) for 2 days at 28 °C. (b) Strains were grown in YNB broth containing 2% glucose, collected by centrifugation, and transferred to YNB containing 2% glucose (Glu), 2% potassium acetate (Ace), or 2% Ace + secoemestrin C (1) (16, 32, or 64 μg/mL) and cultured for 4 h at 28 °C. ICL mRNA expression was analyzed by RT-PCR. Glyceraldehyde-3-phosphate dehydrogenase (GPDH), a housekeeping gene, was measured as a loading control.
We further investigated the effects of secoemestrin C (1) on ICL mRNA expression in C. albicans using a semi-quantitative reverse-transcription polymerase chain reaction (RT-PCR). […] GPDH expression was detected in all treatment conditions.
as §4, with “The expression of the housekeeping gene glyceraldehyde-3-phosphate dehydrogenase (GPDH) was measured as a loading control.” left out

[5] = Candida albicans, ATCC10231, 72 h, ATCC10231, YNB with 2% glucose, 72 h, 28 °C, read-out: MIC
[6] = Candida albicans, ATCC10231, 72 h, ATCC10231, YNB with 2% potassium acetate, 72 h, 28 °C, read-out: MIC
[7] = Candida albicans, ATCC10231, Table 1: growth of C. albicans ATCC10231, read-out: MIC
[8] = YNB with 2% glucose, read-out: MIC
[9] = YNB with 2% potassium acetate, read-out: MIC
[10] = Candida albicans, SC5314, 72 h, YNB with 2% glucose, read-out: MIC
[11] = Candida albicans, SC5314, 72 h, YNB with 2% potassium acetate, read-out: MIC
[12] = Candida albicans, ATCC10231, Table 1: growth of C. albicans ATCC10231

T1 sequence (Q9P8Q7 whole entry): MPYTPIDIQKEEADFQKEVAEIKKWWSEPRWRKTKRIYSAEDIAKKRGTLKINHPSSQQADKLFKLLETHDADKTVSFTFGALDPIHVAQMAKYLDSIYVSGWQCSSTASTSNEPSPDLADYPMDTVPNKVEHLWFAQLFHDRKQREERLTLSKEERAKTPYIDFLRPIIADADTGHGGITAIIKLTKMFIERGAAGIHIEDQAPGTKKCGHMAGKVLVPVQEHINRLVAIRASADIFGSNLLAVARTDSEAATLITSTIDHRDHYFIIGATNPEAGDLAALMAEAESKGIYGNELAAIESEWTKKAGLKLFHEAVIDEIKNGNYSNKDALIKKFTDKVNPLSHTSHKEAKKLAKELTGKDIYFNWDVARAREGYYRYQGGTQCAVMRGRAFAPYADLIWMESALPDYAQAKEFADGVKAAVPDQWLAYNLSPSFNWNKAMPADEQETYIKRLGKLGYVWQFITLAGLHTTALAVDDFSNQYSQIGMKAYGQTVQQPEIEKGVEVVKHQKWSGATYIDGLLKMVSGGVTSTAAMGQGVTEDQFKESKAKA

## O=C(O)CC[N+](=O)[O-] [3-Nitropropionate, 3-nitropropionate, reference compound]
[1]
  IC50: 21.8 ± 1.38 µM
C. albicans ATCC10231; Table 1: growth of C. albicans ATCC10231
  MIC: >128 µg/mL

## C[C@@H]1[C@H](O)[C@@H](C)/C=C/C=C/C=C/C=C/C=C/C=C/C=C/[C@H](O[C@@H]2O[C@H](C)[C@@H](O)[C@H](N)[C@@H]2O)C[C@@H]2O[C@](O)(C[C@@H](O)C[C@@H](O)[C@H](O)CC[C@@H](O)C[C@@H](O)CC(=O)O[C@H]1C)C[C@H](O)[C@H]2C(=O)O [Amphotericin B, amphotericin B, reference compound]
C. albicans ATCC10231; [5]
  MIC: 0.5 µg/mL (≈ 0.541 µM)
C. albicans ATCC10231; [6]
  MIC: 0.5 µg/mL (≈ 0.541 µM)
C. albicans ATCC10231; [7]
  MIC: 0.5 µg/mL (≈ 0.541 µM)
C. albicans ATCC10259; [8]
  MIC: 1 µg/mL (≈ 1.08 µM)
C. albicans ATCC10259; [9]
  MIC: 0.5 µg/mL (≈ 0.541 µM)
C. albicans ATCC11006; [8]
  MIC: 0.5 µg/mL (≈ 0.541 µM)
C. albicans ATCC11006; [9]
  MIC: 0.5 µg/mL (≈ 0.541 µM)
C. albicans ATCC18804; [8]
  MIC: 1 µg/mL (≈ 1.08 µM)
C. albicans ATCC18804; [9]
  MIC: 1 µg/mL (≈ 1.08 µM)
C. albicans SC5314; [10]
  MIC: 0.5 µg/mL (≈ 0.541 µM)
C. albicans SC5314; [11]
  MIC: 0.5 µg/mL (≈ 0.541 µM)

## COc1ccc(C(=O)O[C@H]2C=COC=C3C=C4C(=O)N(C)C(=O)C(=O)N4[C@@H]32)cc1Oc1cc(C=O)ccc1O [Dethiosecoemestrin (2), dethiosecoemestrin]
[1]
  inhibitory activity toward ICL (in words): no inhibitory activity
  IC50: > 241 µM
C. albicans ATCC10231; [7]
  MIC: > 128 µg/mL
C. albicans SC5314; [10]
  MIC: > 128 µg/mL

## COc1ccc2cc1Oc1cc(ccc1O)C(O)C13SSC4(C(=O)N1C)C(O)C1=COC=CC(OC2=O)C1N4C3=O (stereo not drawn) [Emestrin (3), emestrin]
[1]
  inhibitory activity toward ICL (in words): not inhibitors of ICL
  IC50: > 214 µM
[1]; listed as emestrin (3)
  inhibitory activity toward ICL (in words): no inhibitory activity
C. albicans ATCC10231; [12]
  MIC: > 128 µg/mL
C. albicans SC5314; [10]
  MIC: > 128 µg/mL

## COc1ccc2cc1Oc1cc(ccc1O)C(O)C13SSSC4(C(=O)N1C)C(O)C1=COC=CC(OC2=O)C1N4C3=O (stereo not drawn) [Emestrin B (4), emestrin B]
[1]
  inhibitory activity toward ICL (in words): no inhibitory activity; also recorded: not inhibitors of ICL
  IC50: > 203 µM
C. albicans ATCC10231; [12]
  MIC: > 128 µg/mL
C. albicans SC5314; [10]
  MIC: > 128 µg/mL

## COc1ccc(C(=O)O[C@H]2C=COC=C3[C@@H](O)[C@]45SSSS[C@H](C(=O)N4[C@@H]32)N(C)C5=O)cc1Oc1cc(C=O)ccc1O [Secoemestrin C (1), secoemestrin C]
[1]; enzyme activity not recovered by dialysis within 1 h
  reversibility of binding to the enzyme: irreversible
[1]; kinetic analysis, Lineweaver–Burk plot
  ICL inhibition mechanism: uncompetitive inhibitor
[1]
  IC50: 4.77 ± 0.08 µM
[2]
  MIC: 32 to 64 µg/mL (≈ 48.3 to 96.6 µM)
C. albicans ATCC10231; [5]
  MIC: > 128 µg/mL
C. albicans ATCC10231; [6]
  MIC: 64 µg/mL (≈ 96.6 µM)
C. albicans ATCC10231; [7]
  MIC: > 128 µg/mL
C. albicans ATCC10259; YNB with 2% glucose
  MIC: > 128 µg/mL
C. albicans ATCC10259; YNB with 2% potassium acetate
  MIC: 32 µg/mL (≈ 48.3 µM)
C. albicans ATCC11006; YNB with 2% glucose
  MIC: > 128 µg/mL
C. albicans ATCC11006; YNB with 2% potassium acetate
  MIC: 64 µg/mL (≈ 96.6 µM)
C. albicans ATCC18804; YNB with 2% glucose
  MIC: > 128 µg/mL
C. albicans ATCC18804; YNB with 2% potassium acetate
  MIC: 64 µg/mL (≈ 96.6 µM)
[3]; 2% glucose plus 64 μg/mL compound, all strains
  growth phenotype: normal phenotypes
[3]; 2% potassium acetate plus 64 μg/mL compound
  growth phenotype: failed to grow; also recorded: no growth
[4]
  intensity of the PCR band corresponding to the ICL product (ICL mRNA): decreased
C. albicans SC5314; [10]
  MIC: > 128 µg/mL
C. albicans SC5314; [11]
  MIC: 64 µg/mL (≈ 96.6 µM)
C. albicans SC5314; YNB with 2% glucose, 72 h
  MIC: >128 µg/mL
